The text below walks through data of article PMC11078216, “Discovery of potent and selective activity-based probes (ABPs) for the deubiquitinating enzyme USP30” (RSC Chemical Biology, 2024).

In this test the target is T1, RTN3 (Homo sapiens, UniProt O95197).
T1 construct: endogenous in cells; host or cells: HEK293T
T1 sequence (O95197 1-1032): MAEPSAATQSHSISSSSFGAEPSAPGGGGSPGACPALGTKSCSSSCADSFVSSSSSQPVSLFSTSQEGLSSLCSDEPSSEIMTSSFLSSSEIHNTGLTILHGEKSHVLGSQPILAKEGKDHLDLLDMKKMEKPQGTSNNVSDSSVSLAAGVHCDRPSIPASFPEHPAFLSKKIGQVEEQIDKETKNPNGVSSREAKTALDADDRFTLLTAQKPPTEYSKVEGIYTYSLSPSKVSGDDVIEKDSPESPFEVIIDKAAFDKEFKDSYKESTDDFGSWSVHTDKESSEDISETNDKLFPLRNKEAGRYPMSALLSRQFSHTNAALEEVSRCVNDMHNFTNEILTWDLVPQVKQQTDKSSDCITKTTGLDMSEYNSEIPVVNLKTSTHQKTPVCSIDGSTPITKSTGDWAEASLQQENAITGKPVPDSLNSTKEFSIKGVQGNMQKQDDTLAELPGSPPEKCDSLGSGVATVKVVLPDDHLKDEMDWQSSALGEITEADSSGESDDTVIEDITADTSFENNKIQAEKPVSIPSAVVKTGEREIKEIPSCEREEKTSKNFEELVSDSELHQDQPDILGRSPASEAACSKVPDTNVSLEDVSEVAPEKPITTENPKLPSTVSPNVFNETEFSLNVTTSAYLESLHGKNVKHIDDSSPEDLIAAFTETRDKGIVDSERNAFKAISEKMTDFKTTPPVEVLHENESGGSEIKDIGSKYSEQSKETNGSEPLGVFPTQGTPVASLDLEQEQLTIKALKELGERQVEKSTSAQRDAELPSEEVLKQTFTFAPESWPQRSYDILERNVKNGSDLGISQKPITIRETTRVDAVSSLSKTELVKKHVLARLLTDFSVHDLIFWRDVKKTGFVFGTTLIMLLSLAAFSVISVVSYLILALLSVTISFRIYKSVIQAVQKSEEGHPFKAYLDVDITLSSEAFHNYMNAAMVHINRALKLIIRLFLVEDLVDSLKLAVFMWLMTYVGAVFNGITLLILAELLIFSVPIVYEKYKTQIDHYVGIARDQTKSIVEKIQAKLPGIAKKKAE
The experiment in a line: ABPP chemical proteomics (LC-MS/MS) in HEK293T cells. The format is cell-based. The method, then: To explore the selectivity of IMP-2587 and IMP-2586 across the whole proteome, we performed quantitative activity-based protein profiling (ABPP) in HEK293T cells following treatment with IMP-2587 or IMP-2586 (Fig. 3a). After ABP incubation, cells were lysed, and probe-labelled proteins were ligated to biotinylated capture reagents.[27] […] USP30 was outcompeted by corresponding parent inhibitors for each ABP (Fig. 5b and d and Tables S3 and S5, ESI ^†), confirming the high potency and rapid engagement of IMP-2587 and IMP-2586 in cells. […] DESI1 and DESI2 are small ubiquitin-related modifier (SUMO) proteases,[3,29–32] and IMP-2587 and IMP-2586 may offer a starting point for future development of DESI ABPs. […]
d) Live cell probe incubation, lysate click chemistry and precipitation 6-well HEK293T cells were incubated with media containing compounds ABP 2 and ABP 4 at indicated concentrations for 1 h at 37 °C. The cells were washed with PBS and lysed with lysis buffer (50 μL (1% (v/v) Triton X-100, 0.1% (w/v) sodium dodecyl sulfate (SDS), EDTA-free complete protease inhibitor cocktail (1×, Roche) in PBS on ice for 10 min. The lysates were scraped and transferred to corresponding Lo-Bind Eppendorfs. Each lysate was sonicated for 1 minute, and the samples centrifuges at 5,000 x g at 4 °C for 5 minutes to pellet insoluble cellular debris. The supernatant was collected, and protein concentration was determined using the DC Protein Assay (Bio-Rad) as per manufacturer’s instructions, and normalised to lowest concentrated sample (e.g. 1 mg/mL, using lysis buffer). The following “click mixture” was prepared separately, preparing 6 μL for every 100 μL of […]
Capture reagent (AzRB/AzT for ABP 2, YnT/YnB for ABP 4 10 mM in DMSO, 1 vol; final concentration […]
CuSO4 (50 mM in water, 2 vol; final concentration in reaction 1 mM)
TCEP (50 mM in water, 2 vol; final concentration in reaction 1 mM)
TBTA (10 mM in DMSO, 1 vol; final concentration in reaction 100 µM)
The click mixture was vortexed and incubated at room temperature for 2 min before 6 μL of the mixture was added to every 100 μL of lysate. The reaction mixtures were shaken at room temperature for 1 h before being quenched with EDTA (500 mM in H2O) to a final concentration of 10 mM.
Proteins were precipitated by adding H2O (1 vol), MeOH (2 vol) and CHCl3 (0.5 vol), vortexing briefly then centrifuging at 17,000 × g for 5 min. The top H2O/MeOH layer was discarded and the middle layer of protein pellet and lower CHCl3 layer retained. The suspension was washed with MeOH (300 μL), and sonicated to break up the pellet. The proteins were pelleted by centrifugation at 10,000–17000 × g for 5–10 min or until a compact pellet was formed. The protein pellet was washed once more with MeOH (1 mL). The pellet was resuspended by sonicating and completely dissolving in 1% (w/v) SDS in PBS (to 5 mg/mL protein) before being made up to 1 mg/mL protein with PBS. […]
f) Neutravidin biotin enrichment (Affinity pull-down)
Click chemistry and precipitation steps were carried out as described in section 3.2.d, on at least 400ug of protein per sample. The pellet was resuspended by sonicating and completely dissolving in 1% (w/v) SDS in HEPES 50 mM pH 8.0, before being made up to 1 mg/mL protein with HEPES 50 mM pH 8.0 to […]
achieve a final concentration of 0.2% SDS. 20uL of each samples was collected as TL (Total lysate) samples. Pull down of biotinylated proteins was achieved by incubating samples with pre-equilibrated (3x 1 mL washes with 0.2% (w/v) SDS in HEPES 50 mM pH 8 buffer) Pierce™ NeutrAvidin™ Agarose beads for 3 hours at room temperature. NeutrAvidin™ Agarose beads were used in ratio of 1 μL bead resin per 10ug of protein sample. The beads were subsequently washed by moderate shaking for 10 seconds then briefly pelleting by table-top centrifuge then vacuum aspirating the supernatant with fine-end pipette tips (to not disturb the agarose) after collecting 20 µL supernatant as SN (supernatant […]
) samples. […]

`N#CN1CC[C@@H](NC(=O)c2cc(-c3ccccc3Oc3ccc(N=[N+]=[N-])cc3)n[nH]2)C1` [IMP-2586]: the “Difference (log2 fold change of enrichment)” value (IMP-2586 labelling vs DMSO, 30 nM, 10 min, HEK293T (Table S4, Fig.5c)) is 0.91.

For the molecule `C#Cc1cccc(-c2cc(NC(=O)CC3CCN(C#N)C3)on2)c1` (stereo not shown) [IMP-2587], the “Difference (log2 fold change of enrichment)” value (IMP-2587 labelling vs DMSO, 30 nM, 10 min, HEK293T (Table S2, Fig.5a)) came to 1.07.

Take `N#CN1CC[C@H](CC(=O)Nc2cc(-c3cccc(Cl)c3)no2)C1` [compound 1, reference compound]: the “Difference (log2 fold change of enrichment)” value (compound 1 out-competition with IMP-2587 labelling, HEK293T (Table S3, Fig.5b)) is -0.64.

Turning to `N#CN1CC[C@@H](NC(=O)c2cc(-c3ccccc3Oc3ccccc3)n[nH]2)C1` [compound 3, reference compound], the “Difference (log2 fold change of enrichment)” value (compound 3 out-competition with IMP-2586 labelling, HEK293T (Table S5, Fig.5d)) was -0.42.
